Reference: patent US12612409B2, “Pyrrolopyrimidines as CFTR potentiators” (Cystic Fibrosis Foundation, priority 2016, dated 2026)

Target: T1, recombinant F508del V470 CFTR in Fischer rat thyroid (FRT) cells (Homo sapiens, UniProt P13569, DEL508-508)
T1 construct: expressed in transfected cells
Test: FRT ion flux assay of F508del CFTR potentiation
Type: cell-based
Conditions: FRT cells expressing F508del V470 CFTR, forskolin 20 uM, 27° C. pre-incubation
Description: FRT Ion Flux Assay of F508del CFTR Potentiation
Fischer rat thyroid (FRT) cell lines stably expressing recombinant F508del V470 CFTR and halide-sensitive yellow fluorescent protein (Pedemonte et al., J. Clin. Invest. 115(9) 2564-71 (2005)) were seeded at 25,000 cells/well in 50 uL/well of culture medium into black-walled, clear bottom tissue-culture-treated 384-well plates (Corning, cat. no. 3712). After one day, the cells were pre-incubated at 27° C./5% CO2 for 16-24 hours. The cells were then washed with dPBS and treated with forskolin (20 uM) and test compound for 30 mi by addition of 20 uL of compound dilution buffer (dPBS containing forskolin and test compound). Plates were loaded into FLIPR384 fluorescence imaging plate reader (Molecular Devices). After an initial fluorescence reading, iodide buffer (25 uL) (composition (in mM): 137 NaI, 1.5 K2PO4, 8.1 NaH2PO4, 2.7 KCl, 0.5 MgCl2, 1 CaCl2) was added and a second fluorescence reading was made after approximately 21 seconds. Data treatment involved division of the second fluorescence reading by the initial fluorescence reading, then scaling of the resulting normalized endpoint fluorescence with respect to the responses for DMSO (0%) and a positive control potentiator (100%).

T1 sequence (P13569 with tags, fused parts or gaps DEL508-508): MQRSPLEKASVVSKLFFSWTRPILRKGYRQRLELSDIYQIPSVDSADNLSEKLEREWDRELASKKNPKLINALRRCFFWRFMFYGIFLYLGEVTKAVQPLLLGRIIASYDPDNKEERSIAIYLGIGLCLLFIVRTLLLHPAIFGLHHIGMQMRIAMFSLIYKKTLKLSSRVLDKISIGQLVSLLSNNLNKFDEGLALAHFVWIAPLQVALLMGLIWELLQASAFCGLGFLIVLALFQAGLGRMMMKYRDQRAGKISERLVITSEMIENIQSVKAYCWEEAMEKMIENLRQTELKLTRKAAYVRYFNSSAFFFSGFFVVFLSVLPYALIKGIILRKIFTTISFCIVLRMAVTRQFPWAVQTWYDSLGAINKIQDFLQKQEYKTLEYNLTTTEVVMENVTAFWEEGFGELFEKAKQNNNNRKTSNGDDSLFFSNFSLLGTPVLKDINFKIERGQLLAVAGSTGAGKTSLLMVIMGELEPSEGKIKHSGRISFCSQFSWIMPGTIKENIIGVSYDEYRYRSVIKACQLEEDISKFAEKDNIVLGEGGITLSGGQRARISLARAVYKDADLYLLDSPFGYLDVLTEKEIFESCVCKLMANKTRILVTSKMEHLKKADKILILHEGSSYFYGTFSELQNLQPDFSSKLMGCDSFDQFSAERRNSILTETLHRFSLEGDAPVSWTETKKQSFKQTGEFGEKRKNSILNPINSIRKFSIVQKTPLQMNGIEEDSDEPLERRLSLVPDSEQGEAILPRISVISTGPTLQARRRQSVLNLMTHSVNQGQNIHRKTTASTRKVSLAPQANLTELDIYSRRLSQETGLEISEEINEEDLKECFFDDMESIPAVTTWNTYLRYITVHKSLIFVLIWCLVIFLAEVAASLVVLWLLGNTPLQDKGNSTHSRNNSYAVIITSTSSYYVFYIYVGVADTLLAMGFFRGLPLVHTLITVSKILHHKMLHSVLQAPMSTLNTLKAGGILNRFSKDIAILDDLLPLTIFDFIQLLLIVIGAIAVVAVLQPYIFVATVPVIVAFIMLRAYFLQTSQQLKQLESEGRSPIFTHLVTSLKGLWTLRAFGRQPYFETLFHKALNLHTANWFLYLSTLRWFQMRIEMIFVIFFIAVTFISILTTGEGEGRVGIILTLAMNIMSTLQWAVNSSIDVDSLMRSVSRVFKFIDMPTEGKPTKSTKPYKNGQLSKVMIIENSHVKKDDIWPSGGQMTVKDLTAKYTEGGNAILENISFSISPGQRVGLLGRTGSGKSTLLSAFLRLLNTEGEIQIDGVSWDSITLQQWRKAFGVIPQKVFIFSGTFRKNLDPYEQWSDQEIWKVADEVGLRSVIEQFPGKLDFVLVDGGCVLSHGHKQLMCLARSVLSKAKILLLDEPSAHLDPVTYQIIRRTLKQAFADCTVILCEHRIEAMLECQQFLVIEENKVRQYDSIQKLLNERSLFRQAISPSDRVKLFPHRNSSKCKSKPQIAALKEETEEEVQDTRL

| Compound | EC50 [µM] |
| --- | --- |
| CC(c1cc(-c2ccccc2F)no1)n1cc(-c2ccc3c(c2)C(=O)N(C)C3)c2c(N)ncnc21 (centres unmarked) [Example 101, 6-(4-Amino-7-{1-[3-(2-fluorophenyl)-1,2-oxazol-5-yl]ethyl}-7H-pyrrolo[2,3-d]pyrimidin-5-yl)-2-methyl-2,3-dihydro-1H-isoindol-1-one] | 4.06 |
| CC(c1cnc(-c2ccccc2F)[nH]1)n1cc(-c2cn[nH]c2)c2c(N)ncnc21 (centres unmarked) [Example 71, 7-{1-[2-(2-Fluorophenyl)-1H-imidazol-5-yl]ethyl}-5-(1H-pyrazol-4-yl)-7H-pyrrolo[2,3-d]pyrimidin-4-amine] | 0.129 |
| Nc1ncnc2c1c(C1CN(S(=O)(=O)CC3CC3)C1)cn2Cc1cn(-c2ccccc2F)nn1 [Example 293, 5-{1-[(Cyclopropylmethyl)sulfonyl]azetidin-3-yl}-7-{[1-(2-fluorophenyl)-1H-1,2,3-triazol-4-yl]methyl}-7H-pyrrolo[2,3-d]pyrimidin-4-amine] | 1.89 |
| Nc1ncnc2c1c(-c1ccc(Cl)cc1)cn2Cc1cn(-c2ccccc2F)cn1 [Example 265, 5-(4-Chlorophenyl)-7-{[1-(2-fluorophenyl)-1H-imidazol-4-yl]methyl}-7H-pyrrolo[2,3-d]pyrimidin-4-amine] | 3.88 |
| Nc1ncnc2c1c(-c1ccc(Cl)cc1)c(Br)n2Cc1cn(-c2cccc(F)c2)nn1 [Example 319, 6-Bromo-5-(4-chlorophenyl)-7-{[1-(3-fluorophenyl)-1H-1,2,3-triazol-4-yl]methyl}-7H-pyrrolo[2,3-d]pyrimidin-4-amine] | 0.194 |
| CC(c1cc(-c2ccccc2F)no1)n1cc(-c2cc3cnccc3s2)c2c(N)ncnc21 (centres unmarked) [Example 106, 7-{1-[3-(2-Fluorophenyl)-1,2-oxazol-5-yl]ethyl}-5-(thieno[3,2-c]pyridin-2-yl)-7H-pyrrolo[2,3-d]pyrimidin-4-amine] | 2.08 |
| CC(c1cnc(-c2ccccc2F)[nH]1)n1cc(-c2cccc3ccncc23)c2c(N)ncnc21 (centres unmarked) [Example 61, 7-{1-[2-(2-Fluorophenyl)-1H-imidazol-5-yl]ethyl}-5-(isoquinolin-8-yl)-7H-pyrrolo[2,3-d]pyrimidin-4-amine] | 1.48 |
| CC(c1cnc(-c2ccccc2F)[nH]1)n1cc(-c2ccc3c(c2)OCC(=O)N3)c2c(N)ncnc21 (centres unmarked) [Example 65, 7-(4-Amino-7-{1-[2-(2-fluorophenyl)-1H-imidazol-5-yl]ethyl}-7H-pyrrolo[2,3-d]pyrimidin-5-yl)-2H-1,4-benzoxazin-3(4H)-one] | 1.42 |
| CC(c1cc(-c2ccccc2F)no1)n1cc(-c2ccc3nonc3c2)c2c(N)ncnc21 (centres unmarked) [Example 104, 5-(2,1,3-Benzoxadiazol-5-yl)-7-{1-[3-(2-fluorophenyl)-1,2-oxazol-5-yl]ethyl}-7H-pyrrolo[2,3-d]pyrimidin-4-amine] | 0.331 |
| COc1cc2c(cc1-c1cn(C(C)c3cnc(-c4ccccc4F)[nH]3)c3ncnc(N)c13)CCC2 (centres unmarked) [Example 69, 7-{1-[2-(2-Fluorophenyl)-1H-imidazol-5-yl]ethyl}-5-(6-methoxy-2,3-dihydro-1H-inden-5-yl)-7H-pyrrolo[2,3-d]pyrimidin-4-amine] | 0.915 |
| CC(c1cnc(-c2ccccc2F)[nH]1)n1cc(-c2cnc3[nH]ccc3c2)c2c(N)ncnc21 (centres unmarked) [Example 62, 7-{1-[2-(2-Fluorophenyl)-1H-imidazol-5-yl]ethyl}-5-(7H-pyrrolo[2,3-b]pyridin-5-yl)-7H-pyrrolo[2,3-d]pyrimidin-4-amine] | 2.22 |

The next lines start with the values.

| EC50 [µM] | Compound |
| --- | --- |
| 1.19 | CCC(c1cn(-c2ccccc2F)nn1)n1cc(-c2cnc(N(C)C)nc2)c2c(N)ncnc21 (single isomer, unassigned; enantiomer 2) [Example 146, 5-[2-(Dimethylamino)pyrimidin-5-yl]-7-{1-[1-(2-fluorophenyl)-1H-1,2,3-triazol-4-yl]propyl}-7H-pyrrolo[2,3-d]pyrimidin-4-amine, enantiomer 2] |
| 0.277 | CC(c1cn(-c2ccccc2F)nn1)n1cc(-c2cnc3ccccc3c2)c2c(N)ncnc21 (centres unmarked) [Example 100, 7-{1-[1-(2-Fluorophenyl)-1H-1,2,3-triazol-4-yl]ethyl}-5-(quinolin-3-yl)-7H-pyrrolo[2,3-d]pyrimidin-4-amine] |
| 0.0172 | CCC(c1cn(-c2ccc(F)cc2F)nn1)n1cc(-c2cncnc2OC)c2c(N)ncnc21 (centres unmarked) [Example 246, 7-{1-[1-(2,4-Difluorophenyl)-1H-1,2,3-triazol-4-yl]propyl}-5-[4-methoxypyrimidin-5-yl]-7H-pyrrolo[2,3-d] pyrimidin-4-amine] |
| 0.732 | CCC(c1cn(-c2ccccc2F)nn1)n1cc(-c2cnc(C(F)F)nc2)c2c(N)ncnc21 (single isomer, unassigned; enantiomer 2) [Example 144, 5-[2-(Difluoromethyl)pyrimidin-5-yl]-7-{1-[1-(2-fluorophenyl)-1H-1,2,3-triazol-4-yl]propyl}-7H-pyrrolo[2,3-d]pyrimidin-4-amine, enantiomer 2] |
| 0.0424 | CCC(c1cn(-c2ccc(F)c(F)c2)nn1)n1cc(-c2cncnc2OC)c2c(N)ncnc21 (centres unmarked) [Example 245, 7-{1-[1-(3,4-Difluorophenyl)-1H-1,2,3-triazol-4-yl]propyl}-5-[4-methoxypyrimidin-5-yl]-7H-pyrrolo[2,3-d] pyrimidin-4-amine] |
| 2.38 | Cn1cc2cc(-c3cn(Cc4cn(-c5ccccc5F)nn4)c4ncnc(N)c34)ccc2n1 [Example 76, 7-{[1-(2-Fluorophenyl)-1H-1,2,3-triazol-4-yl]methyl}-5-(2-methyl-2H-indazol-5-yl)-7H-pyrrolo[2,3-d]pyrimidin-4-amine] |
| 1.38 | Cn1ncc2c(-c3cn(Cc4cn(-c5ccccc5F)nn4)c4ncnc(N)c34)cccc21 [Example 78, 7-{[1-(2-Fluorophenyl)-1H-1,2,3-triazol-4-yl]methyl}-5-(1-methyl-1H-indazol-4-yl)-7H-pyrrolo[2,3-d]pyrimidin-4-amine] |
| 1.56 | COc1cc(-c2cn(Cc3cn(-c4ccccc4F)nn3)c3ncnc(N)c23)ccc1C#N [Example 84, 4-(4-Amino-7-{[1-(2-fluorophenyl)-1H-1,2,3-triazol-4-yl]methyl}-7H-pyrrolo[2,3-d]pyrimidin-5-yl)-2-methoxybenzonitrile] |
| 0.32 | Cn1ncc2ccc(-c3cn(Cc4cn(-c5ccccc5F)nn4)c4ncnc(N)c34)cc21 [Example 73, 7-{[1-(2-Fluorophenyl)-1H-1,2,3-triazol-4-yl]methyl}-5-(1-methyl-1H-indazol-6-yl)-7H-pyrrolo[2,3-d]pyrimidin-4-amine] |
| 0.488 | CC(c1cn(-c2ccccc2F)nn1)n1cc(-c2ccc3c(cnn3C)c2)c2c(N)ncnc21 (centres unmarked) [Example 95, 7-{1-[1-(2-Fluorophenyl)-1H-1,2,3-triazol-4-yl]ethyl}-5-(1-methyl-1H-indazol-5-yl)-7H-pyrrolo[2,3-d]pyrimidin-4-amine] |
| 0.00541 | CCC(c1cn(-c2ccccc2F)nn1)n1cc(-c2nccnc2OC)c2c(N)ncnc21 (centres unmarked) [Example 251, 7-{1-[1-(2-Fluorophenyl)-1H-1,2,3-triazol-4-yl]propyl}-5-(3-methoxypyrazin-2-yl)-7H-pyrrolo [2,3-d]pyrimidin-4-amine] |
| 0.479 | CCC(c1cn(-c2ccccc2F)nn1)n1cc(-c2cc[nH]n2)c2c(N)ncnc21 (single isomer, unassigned; enantiomer 1) [Example 147, 7-{1-[1-(2-Fluorophenyl)-1H-1,2,3-triazol-4-yl]propyl}-5-(1H-pyrazol-3-yl)-7H-pyrrolo[2,3-d]pyrimidin-4-amine, enantiomer 1] |
